This note sets out measurements from article PMC12029982, “The Mechanism of a Novel Mitochondrial-Targeted Icaritin Derivative in Regulating Apoptosis of BEL-7402 Cells Based on the SIRT3 and CypD-Mediated ROS/p38 MAPK Signaling Pathway” (Molecules, 2025).

Experiment [1] deals with A549. Put plainly: MTT assay, antiproliferative activity. Conditions: Homo sapiens, 48 h drug exposure, mean ± SD. Format: cell-based. On the procedure:
(§1) Human cancer cell lines BEL-7402, A549, MCF-7, PC-3M, and normal renal cell line HEK293 were bought from the BeNa Culture Collection (Beijing, China). BEL7402, A549, and PC-3M were cultured in RPMI 1640 medium (Gibco, Carlsbad, CA, USA). MCF-7 and HEK293 were cultured in the DMEM medium (Gibco, CA, USA). The medium was supplemented with 10% fetal bovine serum (FBS) (CLARK, San Diego, CA, USA), 100 U/mL penicillin, and 0.1 mg/mL streptomycin (Beyotime, Nanjing, China). The cells were incubated in 5% CO2 at 37 °C.
(§2) The MTT assay was employed to assess the inhibitory effect of each compound on cell growth. A549, PC-3M, MCF-7, BEL-7402, and HEK293 cells in the logarithmic growth phase were seeded in 96-well culture plates at an inoculum density of 5 × 10^4 cells/mL. After overnight incubation at 37 °C in a 5% CO2 atmosphere, the cells fully adhered to the surface. Different concentrations of sample solutions (0, 3.125, 6.25, 12.5, 25, 50, 100 μmol/L) were added (100 μL) to treat the cells. After 48 h of drug treatment, 10 μL of a 5 mg/mL MTT solution was added to each well and incubated for 4 h at 37 °C. The supernatant was then discarded, and 150 μL of DMSO was added to dissolve the formazan. The mixture was shaken at room temperature for 15 min, and the absorbance (D) value was measured at 490 nm using a Microplate Reader (HBS-ScanY, Nanjing, China). The drug IC50 values were calculated using GraphPad Prism (v10.0). Each cell viability experiment was performed in triplicate.

In experiment [2] the test system is BEL-7402. Put plainly: MTT assay, antiproliferative activity. Conditions: Homo sapiens, 48 h drug exposure, mean ± SD. Format: cell-based. The procedure: as §1, §2
For experiment [3], the system named is MCF-7. Put plainly: MTT assay, antiproliferative activity. Format: cell-based. Conditions: Homo sapiens, MCF7, 48 h drug exposure, mean ± SD. The procedure: as §1, §2
The test system of experiment [4] is PC-3M. Put plainly: MTT assay, antiproliferative activity. It is filed as cell-based. Conditions: Homo sapiens, 48 h drug exposure, mean ± SD. On the procedure: as §1, §2
The subject of experiment [5] is HEK293. Put plainly: MTT assay, cytotoxicity to normal cell line. The settings on record: Homo sapiens, HEK293; MTT, 48 h drug exposure, mean ± SD; normal cell line. It is filed as cell-based, human. On the procedure:
as §1, §2

Some results are limits rather than exact numbers.

`CCCCCCCCCCC(=O)Oc1cc(O)c2c(=O)c(O)c(-c3ccc(OC)cc3)oc2c1CC=C(C)C` [Compound 8]: the IC50 in experiment [1], in experiment [2], in experiment [3], in experiment [4] and in experiment [5] was greater than 100 µM each time.
On to `COc1ccc(-c2oc3c(CC=C(C)C)c(OC(=O)CCCCCCBr)cc(O)c3c(=O)c2O)cc1` [Compound 2], for which the half-inhibitory concentration (IC50) in experiment [1] is greater than 100 µM; in experiment [2] it was 40.6 ± 5.5 µM; in experiment [3] it was 42.1 ± 5.47 µM; in experiment [4] it was 76.1 ± 4.44 µM; in experiment [5], greater than 100 µM.
For the compound `COc1ccc(-c2oc3c(CC=C(C)C)c(OC(=O)CCCC[P+](c4ccccc4)(c4ccccc4)c4ccccc4)cc(O)c3c(=O)c2O)cc1` [Mito-ICT-1], the half-inhibitory concentration (IC50) came out at 21.1 ± 2.67 µM in experiment [1]; 2.85 ± 0.7 µM in experiment [2]; 10.7 ± 0.35 µM in experiment [3]; 33.6 ± 2.53 µM in experiment [4]; 47 ± 2.91 µM in experiment [5].
For `COc1ccc(-c2oc3c(CC=C(C)C)c(OC(=O)CCCCCCCC[P+](c4ccccc4)(c4ccccc4)c4ccccc4)cc(O)c3c(=O)c2O)cc1` [Mito-ICT-3], the IC50 stood at 13.7 ± 0.92 µM in experiment [1]; 3.85 ± 0.69 µM in experiment [2]; 22.5 ± 1.78 µM in experiment [3]; 20.6 ± 2.06 µM in experiment [4]; 55 ± 3.92 µM in experiment [5].
On to `CCCCC(=O)Oc1cc(O)c2c(=O)c(O)c(-c3ccc(OC)cc3)oc2c1CC=C(C)C` [Compound 5], for which the IC50 stood at 97.8 ± 6.4 µM in experiment [1]; 39.9 ± 2.06 µM in experiment [2]; 48.9 ± 1.42 µM in experiment [3]; 60.2 ± 3.88 µM in experiment [4]; 77.2 ± 5.13 µM in experiment [5].
On to `CCCCCCC(=O)Oc1cc(O)c2c(=O)c(O)c(-c3ccc(OC)cc3)oc2c1CC=C(C)C` [Compound 6], for which the IC50 is greater than 100 µM in experiment [1]; 40.6 ± 5.17 µM in experiment [2]; 45.6 ± 3.02 µM in experiment [3]; greater than 100 µM in experiment [4]; greater than 100 µM in experiment [5].
For `COc1ccc(-c2oc3c(CC=C(C)C)c(OC(=O)CCCCCCCCCCBr)cc(O)c3c(=O)c2O)cc1` [Compound 4], the IC50 in experiment [1] was greater than 100 µM; in experiment [2], greater than 100 µM; in experiment [3] it was greater than 100 µM; in experiment [4], 76 ± 4.69 µM; in experiment [5], greater than 100 µM.
In the case of `COc1ccc(-c2oc3c(CC=C(C)C)c(OC(=O)CCCCCCCCBr)cc(O)c3c(=O)c2O)cc1` [Compound 3], the IC50 in experiment [1], in experiment [2], in experiment [3], in experiment [4] and in experiment [5] was greater than 100 µM each time.
`CCCCCCCCC(=O)Oc1cc(O)c2c(=O)c(O)c(-c3ccc(OC)cc3)oc2c1CC=C(C)C` [Compound 7]: the IC50 in experiment [1] was greater than 100 µM; in experiment [2], 74.6 ± 4.83 µM; in experiment [3], greater than 100 µM; in experiment [4], greater than 100 µM; in experiment [5] it was greater than 100 µM.
As to `COc1ccc(-c2oc3c(CC=C(C)C)c(OC(=O)CCCCCC[P+](c4ccccc4)(c4ccccc4)c4ccccc4)cc(O)c3c(=O)c2O)cc1` [Mito-ICT-2], the 50% inhibitory concentration (IC50) was 10.7 ± 1.09 µM in experiment [1]; 3.43 ± 0.91 µM in experiment [2]; 23.7 ± 2.24 µM in experiment [3]; 27.8 ± 1.74 µM in experiment [4]; 53.7 ± 5.15 µM in experiment [5].
On the same counts, the results for `O=c1[nH]cc(F)c(=O)[nH]1` [Compound 5-FU, 5-fluorouracil, reference compound] are 86.2 ± 7.94 µM, 39 ± 1.32 µM, 13.5 ± 2.78 µM, 58.7 ± 2.64 µM and greater than 100 µM.
Regarding `COc1ccc(-c2oc3c(CC=C(C)C)c(O)cc(O)c3c(=O)c2O)cc1` [ICT, Icaritin], the half-inhibitory concentration (IC50) amounted to 43.1 ± 1.93 µM in experiment [1]; 21.8 ± 2.42 µM in experiment [2]; 25.7 ± 1.89 µM in experiment [3]; 63.6 ± 2.67 µM in experiment [4]; 43.2 ± 3.05 µM in experiment [5].
The matching figures for `COc1cccc2c1C(=O)c1c(O)c3c(c(O)c1C2=O)C[C@@](O)(C(=O)CO)C[C@@H]3O[C@H]1C[C@H](N)[C@H](O)[C@H](C)O1` [DOX, doxorubicin, reference compound]: 6.88 ± 0.62 µM, 3.23 ± 0.64 µM, 2.44 ± 0.81 µM, 0.24 ± 0.11 µM and greater than 100 µM.
As for `COc1ccc(-c2oc3c(CC=C(C)C)c(OC(=O)CCCCBr)cc(O)c3c(=O)c2O)cc1` [Compound 1], the IC50 in experiment [1] was 35.8 ± 3.57 µM; in experiment [2] it was 47.8 ± 2.65 µM; in experiment [3], 25.8 ± 1.07 µM; in experiment [4], 44.5 ± 2.15 µM; in experiment [5] it was 46.8 ± 1.82 µM.
